Measurements published in patent publication US12319672B2, “Alpha-D-galactopyranoside derivatives” (Idorsia Pharmaceuticals Ltd, priority 2019, dated 2025).

Tests used:
human Gal-1 (hGal-1) = assay: Competitive binding assay: binding of biotinylated hGal-1 to microplate-adsorbed asialofetuin (ASF); settings: Activities on hGal-1; mean values of several measurements
Procedure, shortened: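 Spectrophotometric readout (streptavidin-peroxidase, ABTS) of biotinylated galectin retained on ASF-coated wells. Biotinylated hGal-1 or hGal-3, 300-1000 ng/mL, co-incubated with test compound 3 h at 4° C, then washed. Mean IC50 from repeat runs.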

human Gal-3 (hGal-3) = human Gal-3 (hGal-3) (Homo sapiens (Human), UniProt P17931); assay: Competitive binding assay: binding of biotinylated hGal-3 to microplate-adsorbed asialofetuin (ASF); settings: Activity on hGal-3; mean values of several measurements
Procedure, shortened: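 Compounds in DMSO dilution series competed with 300-1000 ng/mL biotinylated hGal-3 for asialofetuin adsorbed on the plate (3 h, 4° C). Streptavidin-peroxidase at 80 ng/mL (1 h, 4° C) with ABTS gave a spectrophotometric read-out, and IC50 was reported as the mean of repeat runs.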

Chain of human Gal-1 (hGal-1) (P09382 2-135 limits assumed): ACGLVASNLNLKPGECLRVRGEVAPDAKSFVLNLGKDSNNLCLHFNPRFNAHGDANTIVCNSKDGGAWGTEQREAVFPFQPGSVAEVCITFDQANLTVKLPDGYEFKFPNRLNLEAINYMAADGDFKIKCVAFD
Chain of human Gal-3 (hGal-3) (P17931 whole entry): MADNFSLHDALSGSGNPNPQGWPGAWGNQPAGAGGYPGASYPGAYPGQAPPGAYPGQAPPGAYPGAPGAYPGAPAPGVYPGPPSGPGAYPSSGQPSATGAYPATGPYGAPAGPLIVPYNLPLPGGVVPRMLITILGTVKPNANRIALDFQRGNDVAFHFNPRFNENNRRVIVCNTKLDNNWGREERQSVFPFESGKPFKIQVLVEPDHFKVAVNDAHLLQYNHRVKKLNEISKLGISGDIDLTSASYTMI

Row | IC50 (human Gal-1 (hGal-1)) [µM] | IC50 (human Gal-3 (hGal-3)) [µM] | SMILES
1 | 6.29 | 0.45 | CC(C)(C)OC(=O)N1CCC(C2CC(C[C@H]3O[C@H](CO)[C@H](O)[C@H](n4cc(-c5cc(F)c(F)c(F)c5)nn4)[C@H]3O)=NO2)CC1 (stereo partly shown) [Ex 1.41]
2 | 3.61 | 1.06 | CC(C)(O)CC1CC(C[C@H]2O[C@H](CO)[C@H](O)[C@H](n3cc(-c4cc(F)c(F)c(F)c4)nn3)[C@H]2O)=NO1 (stereo partly shown) [Ex 1.42]
3 | 15.8 | 1.9 | OCc1cc(C[C@H]2O[C@H](CO)[C@H](O)[C@H](n3cc(-c4cc(F)c(F)c(F)c4)nn3)[C@H]2O)no1 [Ex 1.43]
4 | 1.71 | 0.065 | CC(=O)O[C@@H]1[C@@H](n2cc(-c3cc(F)c(F)c(F)c3)nn2)[C@@H](O)[C@@H](CO)O[C@@H]1CC1CC(C2CCN(C(=O)OC(C)(C)C)CC2)=NO1 (stereo partly shown) [Ex 1.44]
5 | 1.02 | 0.11 | CC(C)(C)OC(=O)N1CCC(C2=NOC(C[C@H]3O[C@H](CO)[C@H](O)[C@H](n4cc(-c5cc(F)c(F)c(F)c5)nn4)[C@H]3O)C2)CC1 (stereo partly shown) [Ex 1.45]
6 | 1 | 0.29 | CO[C@@H]1[C@@H](n2cc(-c3cc(F)c(F)c(F)c3)nn2)[C@@H](O)[C@@H](CO)O[C@@H]1CC1CC(C2CCN(C(=O)OC(C)(C)C)CC2)=NO1 (stereo partly shown) [Ex 1.46]
7 | 6.54 | 0.66 | CO[C@@H]1[C@@H](n2cc(-c3cc(F)c(F)c(F)c3)nn2)[C@@H](O)[C@@H](CO)O[C@@H]1C[C@H]1CC(C2CCN(C(=O)OC(C)(C)C)CC2)=NO1 [Ex 1.47]
8 | 0.56 | 0.089 | CO[C@@H]1[C@@H](n2cc(-c3cc(F)c(F)c(F)c3)nn2)[C@@H](O)[C@@H](CO)O[C@@H]1C[C@@H]1CC(C2CCN(C(=O)OC(C)(C)C)CC2)=NO1 [Ex 1.48]
9 | 2.45 | 0.078 | CC(=O)O[C@@H]1[C@@H](n2cc(-c3cc(F)c(F)c(F)c3)nn2)[C@@H](O)[C@@H](CO)O[C@@H]1Cc1cc(C2CCN(C(=O)OC(C)(C)C)CC2)on1 [Ex 1.49]
10 | 0.57 | 0.063 | CO[C@@H]1[C@@H](n2cc(-c3cc(F)c(F)c(F)c3)nn2)[C@@H](O)[C@@H](CO)O[C@@H]1Cc1cc(C2CCN(C(=O)OC(C)(C)C)CC2)on1 [Ex 1.50]
11 | 2.5 | 0.15 | CC(C)(C)c1cc(C[C@H]2O[C@H](CO)[C@H](O)[C@H](n3cc(-c4cc(F)c(F)c(F)c4)nn3)[C@H]2O)no1 [Ex 1.51]
12 | 7.98 | 0.5 | OC[C@H]1O[C@H](Cc2cc(C3CC3)on2)[C@H](O)[C@@H](n2cc(-c3cc(F)c(F)c(F)c3)nn2)[C@H]1O [Ex 1.52]
13 | 2.87 | 0.35 | CC(C)(C)OC(=O)N1CC(c2cc(C[C@H]3O[C@H](CO)[C@H](O)[C@H](n4cc(-c5cc(F)c(F)c(F)c5)nn4)[C@H]3O)no2)C1 [Ex 1.53]
14 | 6.48 | 0.29 | CC(C)(C)OC(=O)N1CCCC(c2cc(C[C@H]3O[C@H](CO)[C@H](O)[C@H](n4cc(-c5cc(F)c(F)c(F)c5)nn4)[C@H]3O)no2)C1 (stereo partly shown) [Ex 1.54]
15 | 41.9 | 0.66 | CC(C)(C)OC(=O)N1CCC(c2cc(C[C@H]3O[C@H](CO)[C@H](O)[C@H](n4cc(-c5cc(F)c(F)c(F)c5)nn4)[C@H]3O)no2)C1 (stereo partly shown) [Ex 1.55]
16 | 15.2 | 0.34 | OC[C@H]1O[C@H](Cc2cc(C3CCCCC3)on2)[C@H](O)[C@@H](n2cc(-c3cc(F)c(F)c(F)c3)nn2)[C@H]1O [Ex 1.56]
17 | 12.5 | 0.4 | OC[C@H]1O[C@H](Cc2cc(C3CCCC3)on2)[C@H](O)[C@@H](n2cc(-c3cc(F)c(F)c(F)c3)nn2)[C@H]1O [Ex 1.57]
18 | 13.6 | 0.49 | OC[C@H]1O[C@H](Cc2cc(C3(O)CCCC3)on2)[C@H](O)[C@@H](n2cc(-c3cc(F)c(F)c(F)c3)nn2)[C@H]1O [Ex 1.58]
19 | 6.31 | 0.4 | OC[C@H]1O[C@H](Cc2cc(C3(O)COC3)on2)[C@H](O)[C@@H](n2cc(-c3cc(F)c(F)c(F)c3)nn2)[C@H]1O [Ex 1.59]
20 | 6.97 | 0.29 | OC[C@H]1O[C@H](Cc2cc(C3CCOCC3)on2)[C@H](O)[C@@H](n2cc(-c3cc(F)c(F)c(F)c3)nn2)[C@H]1O [Ex 1.60]
21 | 0.62 | 0.036 | CC(C)(C)OC(=O)N1CCC(O)(c2cc(C[C@H]3O[C@H](CO)[C@H](O)[C@H](n4cc(-c5cc(F)c(F)c(F)c5)nn4)[C@H]3O)no2)CC1 [Ex 1.61]
22 | 0.45 | 0.076 | CO[C@@H]1[C@@H](n2cc(-c3cc(F)c(F)c(F)c3)nn2)[C@@H](O)[C@@H](CO)O[C@@H]1Cc1cc(C2CCN(C(=O)OC(C)(C)C)CC2)no1 [Ex 1.62]
23 | 2.54 | 0.34 | CO[C@@H]1[C@@H](n2cc(-c3cc(F)c(F)c(F)c3)nn2)[C@@H](O)[C@@H](CO)O[C@@H]1Cc1cc(C(C)(C)C)on1 [Ex 1.63]
24 | 8.51 | 0.27 | CO[C@@H]1[C@@H](n2cc(-c3cc(F)c(F)c(F)c3)nn2)[C@@H](O)[C@@H](CO)O[C@@H]1Cc1cc(C2CCOCC2)on1 [Ex 1.64]

Row | IC50 (human Gal-1 (hGal-1)) [µM] | IC50 (human Gal-3 (hGal-3)) [µM] | SMILES
25 | 14.1 | 0.56 | CO[C@@H]1[C@@H](n2cc(-c3cc(F)c(F)c(F)c3)nn2)[C@@H](O)[C@@H](CO)O[C@@H]1Cc1cc(C2CCCCC2)on1 [Ex 1.65]
26 | 3.76 | 1.08 | CO[C@@H]1[C@@H](n2cc(-c3cc(F)c(F)c(F)c3)nn2)[C@@H](O)[C@@H](CO)O[C@@H]1CC1=NOC(C(C)(C)C)C1 (stereo partly shown) [Ex 1.66]
27 | 3.08 | 0.43 | CO[C@@H]1[C@@H](n2cc(-c3cc(F)c(F)c(F)c3)nn2)[C@@H](O)[C@@H](CO)O[C@@H]1CC1=NOC(C2CCN(C(=O)OC(C)(C)C)CC2)C1 (stereo partly shown) [Ex 1.67]
28 | 6.73 | 0.45 | CO[C@@H]1[C@@H](n2cc(-c3cc(F)c(F)c(F)c3)nn2)[C@@H](O)[C@@H](CO)O[C@@H]1Cc1cc(C2(O)COC2)on1 [Ex 1.69]
29 | 12.6 | 1.98 | CO[C@@H]1[C@@H](n2cc(-c3cc(F)c(F)c(F)c3)nn2)[C@@H](O)[C@@H](CO)O[C@@H]1Cc1cc(C2CCN(C(=O)OC(C)(C)C)C2)on1 (stereo partly shown) [Ex 1.70]
30 | 5.26 | 0.23 | CO[C@@H]1[C@@H](n2cc(-c3cc(F)c(F)c(F)c3)nn2)[C@@H](O)[C@@H](CO)O[C@@H]1Cc1cc(C2CCCC2)on1 [Ex 1.71]
31 | 5.11 | 0.36 | CO[C@@H]1[C@@H](n2cc(-c3cc(F)c(F)c(F)c3)nn2)[C@@H](O)[C@@H](CO)O[C@@H]1Cc1cc(C2(O)CCCC2)on1 [Ex 1.72]
32 | 3.12 | 0.19 | CO[C@@H]1[C@@H](n2cc(-c3cc(F)c(F)c(F)c3)nn2)[C@@H](O)[C@@H](CO)O[C@@H]1Cc1cc(C2(O)CCCCC2)on1 [Ex 1.73]
33 | 3.16 | 0.18 | CO[C@@H]1[C@@H](n2cc(-c3cc(F)c(F)c(F)c3)nn2)[C@@H](O)[C@@H](CO)O[C@@H]1Cc1cc(C2CCC2)on1 [Ex 1.74]
34 | 3.55 | 0.4 | CO[C@@H]1[C@@H](n2cc(-c3cc(F)c(F)c(F)c3)nn2)[C@@H](O)[C@@H](CO)O[C@@H]1Cc1cc(C2(O)CCOCC2)on1 [Ex 1.75]
35 | 13.3 | 4.62 | CO[C@@H]1[C@@H](n2cc(-c3cc(F)c(F)c(F)c3)nn2)[C@@H](O)[C@@H](CO)O[C@@H]1Cc1cc(C2(O)CCCN(C(=O)OC(C)(C)C)CC2)on1 (stereo partly shown) [Ex 1.76]
36 | 6.82 | 0.71 | OC[C@H]1O[C@H](Cc2cc(C3CCC4(CC3)OCCO4)on2)[C@H](O)[C@@H](n2cc(-c3cc(F)c(F)c(F)c3)nn2)[C@H]1O [Ex 1.77]
37 | 9.64 | 1 | CCOC(=O)C1CCC(O)(c2cc(C[C@H]3O[C@H](CO)[C@H](O)[C@H](n4cc(-c5cc(F)c(F)c(F)c5)nn4)[C@H]3O)no2)CC1 (stereo partly shown) [Ex 1.78]
38 | 4.24 | 0.27 | CO[C@@H]1[C@@H](n2cc(-c3cc(F)c(F)c(F)c3)nn2)[C@@H](O)[C@@H](CO)O[C@@H]1Cc1cc(C2CCC(F)(F)CC2)on1 [Ex 1.79]
39 | 43.8 | 0.11 | CC(C)(C)OC(=O)NC1CCC(c2cc(C[C@H]3O[C@H](CO)[C@H](O)[C@H](n4cc(-c5cc(F)c(F)c(F)c5)nn4)[C@H]3O)no2)CC1 (stereo partly shown) [Ex 1.80]
40 | 14.5 | 0.2 | CC(C)(C)OC(=O)NC1CCC(c2cc(C[C@H]3O[C@H](CO)[C@H](O)[C@H](n4cc(-c5cc(F)c(F)c(F)c5)nn4)[C@H]3O)no2)CC1 (stereo partly shown) [Ex 1.81]
41 | 28.4 | 1.35 | CO[C@@H]1[C@@H](n2cc(-c3cc(F)c(F)c(F)c3)nn2)[C@@H](O)[C@@H](CO)O[C@@H]1Cc1cc(C2(O)CCC(C)(C)CC2)on1 [Ex 1.82]
42 | 8.21 | 0.4 | CO[C@@H]1[C@@H](n2cc(-c3cc(F)c(F)c(F)c3)nn2)[C@@H](O)[C@@H](CO)O[C@@H]1Cc1cc(C2(O)CCC(F)(F)CC2)on1 [Ex 1.83]
43 | 3.01 | 0.35 | CO[C@@H]1[C@@H](n2cc(-c3cc(F)c(F)c(F)c3)nn2)[C@@H](O)[C@@H](CO)O[C@@H]1Cc1cc(C2COC2)on1 [Ex 1.84]
44 | 1.14 | 0.047 | OC[C@H]1O[C@H](Cc2cc(C3CCN(c4ncco4)CC3)on2)[C@H](O)[C@@H](n2cc(-c3cc(F)c(F)c(F)c3)nn2)[C@H]1O [Ex 1.85]
45 | > 100 | 0.089 | OC[C@H]1O[C@H](Cc2cc(C3CCN(c4nc5ccccc5s4)CC3)on2)[C@H](O)[C@@H](n2cc(-c3cc(F)c(F)c(F)c3)nn2)[C@H]1O [Ex 1.86]
46 | 1.97 | 0.08 | OC[C@H]1O[C@H](Cc2cc(C3CCN(c4nccs4)CC3)on2)[C@H](O)[C@@H](n2cc(-c3cc(F)c(F)c(F)c3)nn2)[C@H]1O [Ex 1.87]
47 | 22.2 | 6.23 | COc1ccc(C2=NOC(C[C@@H]3O[C@H](CO)[C@H](O)[C@H](n4cc(-c5cc(F)c(F)c(F)c5)nn4)[C@H]3O)C2)cc1 (stereo partly shown) [Ex 1.88]
